Laboratory results: US20160311788A1, “Antifouling Compounds And Use Thereof” (National University of Singapore, priority 2008, published 2016)
≈ marks a conversion by molar mass, not a printed value.

How the values were obtained:
[1] = test system: marine bacteria strain S1; assay: disc inhibition assay, strain S1; format: cell-based, Rhodovulum iodosum
Outline: (§1)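 Zone-of-inhibition diameters (caliper, n=2 averaged) were recorded after overnight dark incubation at 35° C. Test discs of 6 mm bore 50 μg compound delivered in DMSO, placed on lawns of the marine strain grown in marine broth and spread on Marine Agar; solvent discs served as controls.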

[2] = test system: marine bacteria strain S3; assay: disc inhibition assay, strain S3; format: cell-based, Erythrobacter aquimaris
Outline: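 Disc inhibition assay against a marine bacterial strain isolated from fouling communities in Singapore coastal waters. The strain was grown in marine broth and swabbed over Marine Agar plates as a lawn. 6 mm sterile discs loaded with compound in DMSO, or DMSO controls, were placed on the plates and incubated overnight in the dark at 35° C.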

[3] = test system: marine bacteria strain S4; assay: disc inhibition assay, strain S4; format: cell-based, Bacillus algicola; details: Guptibacillus algicola, S4, 24 h
Outline: as §1

[4] = test system: marine bacteria strain S9; assay: disc inhibition assay, strain S9; format: cell-based, Bacillus algicola; details: Guptibacillus algicola, S9, 24 h
Outline: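 50 μg compound/6 mm disc (from 2 mg/ml DMSO stock); DMSO blank disc control. Lawn swabbed on Marine Agar from marine broth culture. Overnight, 35° C, dark. Readout: inhibition zone diameter (calipers), mean of 2 replicates.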

[5] = test system: marine bacteria strain S10; assay: disc inhibition assay, strain S10; format: cell-based, Halobacillus trueperi; details: Halobacillus trueperi, S10, 24 h
Outline: as §1

[6] = test system: marine bacteria strain S14; assay: disc inhibition assay, strain S14; format: cell-based, Vibrio probioticus
[7] = test system: marine bacteria strain S16; assay: disc inhibition assay, strain S16; format: cell-based, Pseudoalteromonas piscicida
Outline: as §1

[8] = test system: marine bacteria strain S17; assay: disc inhibition assay, strain S17; format: cell-based, Gordonia terrae
Outline: as §1

[9] = test system: marine bacteria strain S18; assay: disc inhibition assay, strain S18; format: cell-based, Microbacterium esteraromaticum; details: Microbacterium esteraromaticum, S18, 24 h
[10] = test system: marine bacteria strain S27; assay: disc inhibition assay, strain S27; format: cell-based, Tenacibaculum lutimaris; details: Tenacibaculum lutimaris, S27, 24 h
Outline: as §1

[11] = test system: marine bacteria strain S28; assay: disc inhibition assay, strain S28; format: cell-based, Arthrobacter protophormial; details: Arthrobacter, S28, 24 h
Outline: as §1

[12] = test system: marine bacteria strain S29; assay: disc inhibition assay, strain S29; format: cell-based, Bacillus hwajinpoensis; details: Guptibacillus hwajinpoensis, S29, 24 h
Outline: as §1

[13] = test system: marine bacteria strain S30; assay: disc inhibition assay, strain S30; format: cell-based, Bacillus borophilicus; details: Bacillus, S30, 24 h
Outline: as §1

[14] = test system: Escherichia coli (Strain K12; ATCC 15222); assay: disc inhibition assay, REF 1; format: cell-based
Experimental: (§2) 13 strains of marine bacteria were isolated from fouling communities located in the coastal waters around Singapore. These were characterized in earlier studies and reported in Teo et al. (U.S. patent application Ser. No. 11/265,833) and Choong et al (in prep). In addition, four reference bacterial strains were added tested: Escherichia coli (Strain K12, ATCC 15222), E. coli (strain DH5a), Pseudomonas aeruginosa (strain LMG 12228; ATCC 15692) and P. putida (strain KT2440; ATCC 47054). All the bacteria were also tested against five antibiotics: ampicillin (AMP), tetracycline (TETR), erythromycin (ERY), chloramphenicol (CHL) and streptomycin (STREP).
(§3) Disks comprising the compounds to be tested were prepared as follows. The antibacterial assay, the pure compounds were made up to a concentration of 2 mgml^−1 in DMSO. 25 μl of the stock was pipetted onto each 6 mm sterile disc (Macherey-Nagel #484000) to obtain 50 μg of compound per disc. Equivalent volume of DMSO was used inoculated for the control.
(§4) For all disk inhibition assays, bacterial cultures were grown in marine broth (Pronadisa #1217.00). Sterile swabs dipped into the cultures were used to inoculate Marine Agar plates with a bacterial lawn by smearing the culture over the surface. After inoculating the plates, discs with antibiotics, pharmaceuticals or control blanks were placed on each plate. Each concentration of antibiotic or pharmaceutical was tested with two replicates. After the disks were placed on the agar surface, plates were incubated overnight in the dark at 35° C. After incubation, plates were examined for zones of inhibition or clearing around control and treated disks. The diameter of any zone of clearing or inhibition was measured using Vernier calipers. There were two replicates per treatment, and the average was taken. There was no zone of inhibition around the control blanks in all the assays.

[15] = test system: Escherichia coli (Strain DH5a); assay: disc inhibition assay, REF 2; format: cell-based
Experimental: as §2, §3, §4

[16] = test system: Pseudomonas aeruginosa (strain LMG 12228; ATCC 15692); assay: disc inhibition assay, REF 3; format: cell-based
Experimental: as §2, §3, §4

[17] = test system: Pseudomonas putida (Strain KT2440; BCRC 10459); assay: disc inhibition assay, REF 4; format: cell-based
Experimental: as §2, §3, §4

[18] = test system: Stage II nauplii of Balanus amphitrite; assay: barnacle toxicity assay; format: in vivo; details: Table 3(a); concentration that caused 50% mortality, 22 to 24 hours, Stage II nauplii
Experimental: Pure compounds were suspended in DMSO and sonicated to obtain a stock solution of 50 mg ml^−1 in DMSO. This stock solution is stored at −20° C. in 4 ml amber screw cap vials. For the bioassays, a small volume of stock solution was added to 1 μm filtered seawater in a glass scintillation vial. This suspension was then sonicated around 10 minutes. Serial dilutions were generated to the required range of concentrations. Serial dilution of the equivalent amounts of DMSO in seawater was used as the control.
The barnacle bioassay method used follows from the method first introduced by Rittschof et al. (1992), and subsequently by other authors (Willemsen et al., 1998). This method is now standard practice for many antifouling screening of novel compounds.
Toxicity assays were modified from Rittschof et al. (1992). Stage II naupliar larvae used in tests were obtained from Balanus amphitrite adults collected from inter-tidal rock walls at Kranji mangrove, Singapore. Larvae were collected from a container of adults by attraction to a point source of light and transferred to 500 ml of fresh seawater. Next, larvae were re-concentrated with a fiber optic light and added to assays.
Duplicate assays were conducted in 2 ml glass vials (La Pha Pack® PN 11-14-0544) in 1 ml of filtered seawater for 22 to 24 hours. The assays were repeated for confirmation. There were two sets of controls, a blank control consisting of 3 tubes of seawater only, and DMSO control consisting of the equivalent dilution series with DMSO without compound). For the compounds, there were 3 tubes of each for each test concentration. The assay was initiated by addition of barnacle naupliar in 50 μl of seawater. After 22 to 24 hours of incubation at 25-27° C. solutions containing test animals were transferred to a Bogorov tray and scored as living or dead. Moribund larvae were scored as dead. Results were confirmed by repeating the assay. Data were combined and the concentration that caused 50% mortality (LD50) was calculated by probit analysis using a basic computer program (Libermann, 1983). If data were not appropriate for probit analysis, the LD50 was estimated from graphed data.

[19] = test system: cyprids of Balanus amphitrite; assay: barnacle settlement assay; format: in vivo; details: Amphibalanus amphitrite, 24 h, read-out: ED50, Table 3(a); concentration that caused 50% settlement inhibition, 24 hours, cyprids
Outline: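 Cyprids reared on Tetraselmis/Chaetoceros at 25° C. and aged at 4° C. for 2-3 days; 20-40 per glass vial exposed in triplicate to compound serially diluted in filtered seawater from DMSO stock, with DMSO and seawater controls. Settled, metamorphosed larvae counted after 24 hours; ED50 (50% settlement inhibition) from probit analysis or graphed data.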

For `CC1(C)S[C@@H]2[C@H](NC(=O)[C@H](N)c3ccccc3)C(=O)N2[C@H]1C(=O)O` [AMP, Ampicillin, reference compound], which zone of inhibition at 2 µg/disc ([1]; Rhodovulum iodosum, S1, strain 1, 2 ug) is on record?
The zone of inhibition at 2 µg/disc was 5 to 10 mm.

And the zone of inhibition at 10 µg/disc ([1]; Rhodovulum iodosum, S1, strain 1, 10 ug)?
Its zone of inhibition at 10 µg/disc is 5 to 10 mm.

What about the zone of inhibition ([2]; strain 3, 2 ug) of the same compound?
Its zone of inhibition is “−”.

And the zone of inhibition ([2]; strain 3, 10 ug)?
Its zone of inhibition is “−”.

What about the zone of inhibition at 2 µg/disc ([3]; strain 4, 2 ug) of the same compound?
Its zone of inhibition at 2 µg/disc is greater than 10 mm.

And the zone of inhibition at 10 µg/disc ([3]; strain 4, 10 ug)?
The zone of inhibition at 10 µg/disc was greater than 10 mm.

What about the zone of inhibition at 2 µg/disc ([4]; strain 9, 2 ug) of the same compound?
Its zone of inhibition at 2 µg/disc is 2 to 5 mm.

And the zone of inhibition at 10 µg/disc ([4]; strain 9, 10 ug)?
Its zone of inhibition at 10 µg/disc is greater than 10 mm.

What about the zone of inhibition at 2 µg/disc ([5]; strain 10, 2 ug) of the same compound?
The zone of inhibition at 2 µg/disc was greater than 10 mm.

And the zone of inhibition at 10 µg/disc ([5]; strain 10, 10 ug)?
The zone of inhibition at 10 µg/disc was greater than 10 mm.

What about the zone of inhibition at 2 µg/disc ([6]; Vibrio, S14, 24 h) of the same compound?
The zone of inhibition at 2 µg/disc was 2 to 5 mm.

What about the zone of inhibition at 10 µg/disc ([6]; Vibrio, S14, 24 h) of the same compound?
The zone of inhibition at 10 µg/disc was 2 to 5 mm.

What about the zone of inhibition at 2 µg/disc ([7]; Pseudoalteromonas piscicida, S16, 24 h, strain 16, 2 ug) of the same compound?
Its zone of inhibition at 2 µg/disc is 2 to 5 mm.

What about the zone of inhibition at 10 µg/disc ([7]; Pseudoalteromonas piscicida, S16, 24 h, strain 16, 10 ug) of the same compound?
The zone of inhibition at 10 µg/disc was 2 to 5 mm.

And the zone of inhibition ([8]; strain 17, 2 ug)?
The zone of inhibition was “−”.

And the zone of inhibition ([8]; strain 17, 10 ug)?
The zone of inhibition was “−”.

What about the zone of inhibition at 2 µg/disc ([9]; strain 18, 2 ug) of the same compound?
The zone of inhibition at 2 µg/disc was 2 to 5 mm.

And the zone of inhibition at 10 µg/disc ([9]; strain 18, 10 ug)?
The zone of inhibition at 10 µg/disc was 5 to 10 mm.

And the zone of inhibition at 2 µg/disc ([10]; strain 27, 2 ug)?
The zone of inhibition at 2 µg/disc was 5 to 10 mm.

And the zone of inhibition at 10 µg/disc ([10]; strain 27, 10 ug)?
The zone of inhibition at 10 µg/disc was greater than 10 mm.

And the zone of inhibition at 2 µg/disc ([11]; strain 28, 2 ug)?
Its zone of inhibition at 2 µg/disc is 2 to 5 mm.

And the zone of inhibition at 10 µg/disc ([11]; strain 28, 10 ug)?
The zone of inhibition at 10 µg/disc was 5 to 10 mm.

What about the zone of inhibition at 2 µg/disc ([12]; strain 29, 2 ug) of the same compound?
The zone of inhibition at 2 µg/disc was greater than 10 mm.

What about the zone of inhibition at 10 µg/disc ([12]; strain 29, 10 ug) of the same compound?
Its zone of inhibition at 10 µg/disc is greater than 10 mm.

What about the zone of inhibition at 2 µg/disc ([13]; strain 30, 2 ug) of the same compound?
Its zone of inhibition at 2 µg/disc is greater than 10 mm.

What about the zone of inhibition at 10 µg/disc ([13]; strain 30, 10 ug) of the same compound?
The zone of inhibition at 10 µg/disc was greater than 10 mm.

What about the zone of inhibition ([14]; REF 1, 2 ug) of the same compound?
The zone of inhibition was “−”.

What about the zone of inhibition ([14]; REF 1, 10 ug) of the same compound?
Its zone of inhibition is “+ (2-5 mm zone of inhibition around each disk was observed.)”.

And the zone of inhibition ([15]; REF 2, 2 ug)?
The zone of inhibition was “−”.

And the zone of inhibition ([15]; REF 2, 10 ug)?
The zone of inhibition was “+ (2-5 mm zone of inhibition around each disk was observed.)”.

What about the zone of inhibition ([16]; REF 3, 2 ug) of the same compound?
Its zone of inhibition is “−”.

What about the zone of inhibition ([16]; REF 3, 10 ug) of the same compound?
The zone of inhibition was “−”.

What about the zone of inhibition ([17]; REF 4, 2 ug) of the same compound?
The zone of inhibition was “−”.

What about the zone of inhibition ([17]; REF 4, 10 ug) of the same compound?
The zone of inhibition was “+ (2-5 mm zone of inhibition around each disk was observed.)”.

With `CN(C)C(=O)C(CCN1CCC(O)(c2ccc(Cl)cc2)CC1)(c1ccccc1)c1ccccc1` [LOP, loperamide, reference compound] as the compound, how does the zone of inhibition ([1]; strain 1, 50 μg of compound per disc) read?
The zone of inhibition was “−”.

And the zone of inhibition at 50 µg/disc ([2]; Qipengyuania aquimaris, S3, 24 h)?
Its zone of inhibition at 50 µg/disc is greater than 10 mm.

What about the zone of inhibition at 50 µg/disc [3] of the same compound?
Its zone of inhibition at 50 µg/disc is 5 to 10 mm.

What about the zone of inhibition at 50 µg/disc [4] of the same compound?
Its zone of inhibition at 50 µg/disc is 5 to 10 mm.

What about the zone of inhibition at 50 µg/disc [5] of the same compound?
The zone of inhibition at 50 µg/disc was 5 to 10 mm.

And the zone of inhibition ([6]; strain 14, 50 μg of compound per disc)?
Its zone of inhibition is “−”.

And the zone of inhibition ([7]; strain 16, 50 μg of compound per disc)?
Its zone of inhibition is “−”.

And the zone of inhibition at 50 µg/disc ([8]; Gordonia terrae, S17, 24 h)?
Its zone of inhibition at 50 µg/disc is 5 to 10 mm.

And the zone of inhibition at 50 µg/disc [9]?
Its zone of inhibition at 50 µg/disc is greater than 10 mm.

And the zone of inhibition at 50 µg/disc [10]?
The zone of inhibition at 50 µg/disc was 5 to 10 mm.

What about the zone of inhibition at 50 µg/disc [11] of the same compound?
Its zone of inhibition at 50 µg/disc is 5 to 10 mm.

What about the zone of inhibition at 50 µg/disc [12] of the same compound?
Its zone of inhibition at 50 µg/disc is 5 to 10 mm.

And the zone of inhibition at 50 µg/disc [13]?
Its zone of inhibition at 50 µg/disc is 2 to 5 mm.

What about the LD50 [18] of the same compound?
The LD50 was 1.56 µg/mL.

What about the IC50 [19] of the same compound?
Its IC50 is 0.37 µg/mL (≈ 0.776 µM).
